This note sets out measurements from US20250353891A1 (MEDIMMUNE LIMITED, priority 2022, published 2025).

Test [1] concerns the target human glucagon receptor (hGCGR) (Homo sapiens, UniProt P47871). In words: cAMP production (HTRF) in CHO cells expressing hGCGR. The arrangement: expressed in transfected cells. It is filed as cell-based. As to conditions: cAMP in CHO hGCGR cells, geometric mean, read-out: hGluc-R EC50. In outline: (§1)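 Potency values represent EC50 from 4-parameter logistic curves of HTRF % Delta F signal. Receptor-expressing CHO cells (hGCGR 2×10^5 cells/mL, hGLP-1R 1×10^5 cells/mL) were exposed for 30 min at room temperature before two-step cAMP detection.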
(Cyclic AMP is a second messenger, typically raised through Gs and lowered through Gi signalling.)

Test [2] addresses human GLP-1 receptor (hGLP-1R) (Homo sapiens, UniProt P43220). In words: cAMP production (HTRF) in CHO cells expressing hGLP-1R. It is filed as cell-based. More on the design: expressed in transfected cells. As to conditions: for EC50: cAMP in CHO hGLP-1R cells, geometric mean, read-out: hGLP-1R EC50; for % Relative Potency Ratio: % GLP-1R activity relative to GLP-1 / % GlucR activity relative to glucagon. In outline:
as §1

The mark [3] stands for this setting: Table 6, peptides modified at position 17.
[4] abbreviates: Table 7, peptides modified at position 20.

Read-outs that look alike come from different tables or passages of the source. Starred links: 1 amine or outer side, 2 acyl side, 3 side chain; linkers in the order of their positions; H or OH if unused. Non-standard residues stand in square brackets, D forms with d. Residues, ends and D or L forms follow the SMILES beside them. Groups on a side chain read outwards from the residue. *: point of attachment. C18 diacid = O=C(O)CCCCCCCCCCCCCCCCC(=O)*; γGlu = O=C(O)[C@H](CCC(=O)[*:2])N[*:1]; αMeF = C[C@](N)(Cc1ccccc1)C(=O)O; AEEA = NCCOCCOCC(=O)O; Aib = CC(C)(N)C(=O)O A value given as a limit tells only on which side of the number the result lay.

Chain of human glucagon receptor (hGCGR) (P47871 26-477): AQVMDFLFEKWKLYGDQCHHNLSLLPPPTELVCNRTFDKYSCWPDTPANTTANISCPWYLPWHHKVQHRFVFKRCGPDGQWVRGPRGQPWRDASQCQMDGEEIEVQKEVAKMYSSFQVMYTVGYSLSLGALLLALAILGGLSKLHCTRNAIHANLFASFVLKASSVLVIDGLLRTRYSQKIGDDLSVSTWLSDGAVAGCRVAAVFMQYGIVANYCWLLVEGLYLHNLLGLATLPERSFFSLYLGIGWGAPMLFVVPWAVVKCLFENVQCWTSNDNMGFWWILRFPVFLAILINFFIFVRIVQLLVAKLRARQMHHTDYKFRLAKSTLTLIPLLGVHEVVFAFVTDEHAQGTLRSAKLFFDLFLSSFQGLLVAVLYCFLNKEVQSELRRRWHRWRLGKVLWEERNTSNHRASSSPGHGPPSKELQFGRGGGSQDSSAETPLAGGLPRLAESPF
Chain of human GLP-1 receptor (hGLP-1R) (P43220 24-463): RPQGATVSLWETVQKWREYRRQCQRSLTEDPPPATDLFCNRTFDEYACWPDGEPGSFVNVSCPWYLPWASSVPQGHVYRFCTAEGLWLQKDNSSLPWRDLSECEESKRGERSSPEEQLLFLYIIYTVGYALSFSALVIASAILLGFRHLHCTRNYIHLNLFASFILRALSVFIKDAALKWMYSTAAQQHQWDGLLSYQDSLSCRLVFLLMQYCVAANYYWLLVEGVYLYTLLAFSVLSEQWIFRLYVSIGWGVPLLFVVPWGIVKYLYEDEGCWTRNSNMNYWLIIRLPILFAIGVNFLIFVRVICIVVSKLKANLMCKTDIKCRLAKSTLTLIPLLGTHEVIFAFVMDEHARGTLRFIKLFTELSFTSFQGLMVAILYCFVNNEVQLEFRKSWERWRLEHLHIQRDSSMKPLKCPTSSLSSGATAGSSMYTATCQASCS

The EC50 is the midpoint of the concentration-response curve. For the compound `CC(C)C[C@H](NC(=O)[C@H](Cc1c[nH]c2ccccc12)NC(=O)[C@H](CCC(N)=O)NC(=O)[C@@H](NC(=O)[C@H](Cc1ccccc1)NC(=O)[C@H](CC(=O)O)NC(=O)[C@H](CCCNC(=N)N)NC(=O)[C@H](C)NC(=O)[C@H](CCCNC(=N)N)NC(=O)[C@H](CCCCNC(=O)COCCOCCNC(=O)COCCOCCNC(=O)CC[C@H](NC(=O)CC[C@H](NC(=O)CCCCCCCCCCCCCCCCC(=O)O)C(=O)O)C(=O)O)NC(=O)[C@@H](NC(=O)[C@H](CC(=O)O)NC(=O)[C@H](CC(C)C)NC(=O)[C@](C)(Cc1ccccc1)NC(=O)[C@H](CCCCN)NC(=O)[C@H](CO)NC(=O)[C@@H](NC(=O)[C@H](CC(=O)O)NC(=O)[C@H](CO)NC(=O)[C@@H](NC(=O)[C@H](Cc1ccccc1)NC(=O)[C@@H](NC(=O)CNC(=O)[C@H](CCC(N)=O)NC(=O)C(C)(C)NC(=O)[C@@H](N)Cc1c[nH]cn1)[C@@H](C)O)[C@@H](C)O)C(C)C)[C@@H](C)O)C(C)C)C(=O)N[C@@H](CC(C)C)C(=O)N[C@@H](CCC(=O)O)C(=O)NC(C)(C)C(=O)NCC(=O)O` [Peptide 518], the results for the EC50 in test [1] (setting [3]) and in test [2] (setting [3]) were 0.0773 nM and 0.031 nM, respectively. Moreover, the “% Relative Potency Ratio” value in test [2] (Table 6) turned out to be 4.9.
`CC(C)C[C@H](NC(=O)[C@H](Cc1c[nH]c2ccccc12)NC(=O)[C@H](CCC(N)=O)NC(=O)[C@@H](NC(=O)[C@H](Cc1ccccc1)NC(=O)[C@H](CC(=O)O)NC(=O)[C@H](CCCNC(=N)N)NC(=O)[C@H](C)NC(=O)[C@H](CCCNC(=N)N)NC(=O)[C@H](CCCCNC(=O)CC[C@H](NC(=O)CC[C@H](NC(=O)COCCOCCNC(=O)COCCOCCNC(=O)CC[C@H](NC(=O)CC[C@H](NC(=O)CCCCCCCCCCCCCCCCC(=O)O)C(=O)O)C(=O)O)C(=O)O)C(=O)O)NC(=O)[C@@H](NC(=O)[C@H](CC(=O)O)NC(=O)[C@H](CC(C)C)NC(=O)[C@](C)(Cc1ccccc1)NC(=O)[C@H](CCCCN)NC(=O)[C@H](CO)NC(=O)[C@@H](NC(=O)[C@H](CC(=O)O)NC(=O)[C@H](CO)NC(=O)[C@@H](NC(=O)[C@H](Cc1ccccc1)NC(=O)[C@@H](NC(=O)CNC(=O)[C@H](CCC(N)=O)NC(=O)C(C)(C)NC(=O)[C@@H](N)Cc1c[nH]cn1)[C@@H](C)O)[C@@H](C)O)C(C)C)[C@@H](C)O)C(C)C)C(=O)N[C@@H](CC(C)C)C(=O)N[C@@H](CCC(=O)O)C(=O)NC(C)(C)C(=O)NCC(=O)O` [Peptide 519]: the figures for the EC50 in test [1] (setting [3]) and in test [2] (setting [3]) were 0.386 nM and 0.172 nM, respectively. In test [2] (Table 6), the “% Relative Potency Ratio” value was determined as 4.4.
As for `CC(C)C[C@H](NC(=O)[C@H](Cc1c[nH]c2ccccc12)NC(=O)[C@H](CCC(N)=O)NC(=O)[C@@H](NC(=O)[C@H](Cc1ccccc1)NC(=O)[C@H](CC(=O)O)NC(=O)[C@H](CCCNC(=N)N)NC(=O)[C@H](C)NC(=O)[C@H](CCCNC(=N)N)NC(=O)[C@H](CCCCNC(=O)CC[C@H](NC(=O)CC[C@H](NC(=O)COCCOCCNC(=O)COCCOCCNC(=O)CC[C@H](NC(=O)CC[C@H](NC(=O)CCCCCCCCCCCCCCCCCCC(=O)O)C(=O)O)C(=O)O)C(=O)O)C(=O)O)NC(=O)[C@@H](NC(=O)[C@H](CC(=O)O)NC(=O)[C@H](CC(C)C)NC(=O)[C@](C)(Cc1ccccc1)NC(=O)[C@H](CCCCN)NC(=O)[C@H](CO)NC(=O)[C@@H](NC(=O)[C@H](CC(=O)O)NC(=O)[C@H](CO)NC(=O)[C@@H](NC(=O)[C@H](Cc1ccccc1)NC(=O)[C@@H](NC(=O)CNC(=O)[C@H](CCC(N)=O)NC(=O)C(C)(C)NC(=O)[C@@H](N)Cc1c[nH]cn1)[C@@H](C)O)[C@@H](C)O)C(C)C)[C@@H](C)O)C(C)C)C(=O)N[C@@H](CC(C)C)C(=O)N[C@@H](CCC(=O)O)C(=O)NC(C)(C)C(=O)NCC(=O)O` [Peptide 520], the EC50 in test [1] (setting [3]) is 1.62 nM; in test [2] (setting [3]), 0.543 nM. Also, the “% Relative Potency Ratio” value in test [2] (Table 6) is on record as 5.9.
Regarding `CC(C)C[C@H](NC(=O)[C@H](Cc1c[nH]c2ccccc12)NC(=O)[C@H](CCC(N)=O)NC(=O)[C@@H](NC(=O)[C@H](Cc1ccccc1)NC(=O)[C@H](CC(=O)O)NC(=O)[C@H](CCCCNC(=O)COCCOCCNC(=O)COCCOCCNC(=O)CC[C@H](NC(=O)CCCCCCCCCCCCCCCCC(=O)O)C(=O)O)NC(=O)[C@H](C)NC(=O)[C@H](CCCNC(=N)N)NC(=O)[C@H](CCC(=O)O)NC(=O)[C@H](CO)NC(=O)[C@H](CC(=O)O)NC(=O)[C@H](CC(C)C)NC(=O)[C@](C)(Cc1ccccc1)NC(=O)[C@H](CCCCN)NC(=O)[C@H](CO)NC(=O)[C@@H](NC(=O)[C@H](CC(=O)O)NC(=O)[C@H](CO)NC(=O)[C@@H](NC(=O)[C@H](Cc1ccccc1)NC(=O)[C@@H](NC(=O)CNC(=O)[C@H](CCC(N)=O)NC(=O)C(C)(C)NC(=O)[C@@H](N)Cc1c[nH]cn1)[C@@H](C)O)[C@@H](C)O)C(C)C)C(C)C)C(=O)N[C@@H](CCC(=O)O)C(=O)N[C@@H](C)C(=O)NCC(=O)NCC(=O)O` [Peptide 521], the results for the EC50 in test [1] (setting [4]) and in test [2] (setting [4]) were 10.1 nM and 0.677 nM, respectively. Besides, the “% Relative Potency Ratio” value in test [2] (Table 7) is reported as 29.5.
The corresponding values for `CC(C)C[C@H](NC(=O)[C@H](Cc1c[nH]c2ccccc12)NC(=O)[C@H](C)NC(=O)[C@@H](NC(=O)[C@H](Cc1ccccc1)NC(=O)[C@H](CC(=O)O)NC(=O)[C@H](CCCCNC(=O)COCCOCCNC(=O)COCCOCCNC(=O)CC[C@H](NC(=O)CCCCCCCCCCCCCCCCC(=O)O)C(=O)O)NC(=O)[C@H](C)NC(=O)[C@H](CCCNC(=N)N)NC(=O)[C@H](CCC(=O)O)NC(=O)[C@H](CO)NC(=O)[C@H](CC(=O)O)NC(=O)[C@H](CC(C)C)NC(=O)[C@](C)(Cc1ccccc1)NC(=O)[C@H](CCCCN)NC(=O)[C@H](CO)NC(=O)[C@@H](NC(=O)[C@H](CC(=O)O)NC(=O)[C@H](CO)NC(=O)[C@@H](NC(=O)[C@H](Cc1ccccc1)NC(=O)[C@@H](NC(=O)CNC(=O)[C@H](CCC(N)=O)NC(=O)C(C)(C)NC(=O)[C@@H](N)Cc1c[nH]cn1)[C@@H](C)O)[C@@H](C)O)C(C)C)C(C)C)C(=O)N[C@@H](CCC(=O)O)C(=O)N[C@@H](C)C(=O)NCC(=O)NCC(=O)O` [Peptide 522] are 6.36 nM, 0.508 nM and 24.8.
For the compound `CC(C)C[C@H](NC(=O)[C@H](Cc1c[nH]c2ccccc12)NC(=O)[C@H](C)NC(=O)[C@@H](NC(=O)[C@H](Cc1ccccc1)NC(=O)[C@H](CC(=O)O)NC(=O)[C@H](CCCCNC(=O)COCCOCCNC(=O)COCCOCCNC(=O)CC[C@H](NC(=O)CCCCCCCCCCCCCCCCCCC(=O)O)C(=O)O)NC(=O)[C@H](C)NC(=O)[C@H](CCCNC(=N)N)NC(=O)[C@H](CCC(=O)O)NC(=O)[C@H](CO)NC(=O)[C@H](CC(=O)O)NC(=O)[C@H](CC(C)C)NC(=O)[C@](C)(Cc1ccccc1)NC(=O)[C@H](CCCCN)NC(=O)[C@H](CO)NC(=O)[C@@H](NC(=O)[C@H](CC(=O)O)NC(=O)[C@H](CO)NC(=O)[C@@H](NC(=O)[C@H](Cc1ccccc1)NC(=O)[C@@H](NC(=O)CNC(=O)[C@H](CCC(N)=O)NC(=O)C(C)(C)NC(=O)[C@@H](N)Cc1c[nH]cn1)[C@@H](C)O)[C@@H](C)O)C(C)C)C(C)C)C(=O)N[C@@H](CCC(=O)O)C(=O)N[C@@H](C)C(=O)NCC(=O)NCC(=O)O` [Peptide 523], the EC50 in test [1] (setting [4]) was over 24.7 nM; in test [2] (setting [4]), 0.615 nM.
In the case of `CC(C)C[C@H](NC(=O)[C@H](Cc1c[nH]c2ccccc12)NC(=O)[C@H](CCCNC(=N)N)NC(=O)[C@@H](NC(=O)[C@H](Cc1ccccc1)NC(=O)[C@H](CC(=O)O)NC(=O)[C@H](CCCCNC(=O)COCCOCCNC(=O)COCCOCCNC(=O)CC[C@H](NC(=O)CCCCCCCCCCCCCCCCC(=O)O)C(=O)O)NC(=O)[C@H](C)NC(=O)[C@H](CCCNC(=N)N)NC(=O)[C@H](CCC(=O)O)NC(=O)[C@H](CO)NC(=O)[C@H](CC(=O)O)NC(=O)[C@H](CC(C)C)NC(=O)[C@](C)(Cc1ccccc1)NC(=O)[C@H](CCC(=O)O)NC(=O)[C@H](CO)NC(=O)[C@@H](NC(=O)[C@H](CC(=O)O)NC(=O)[C@H](CO)NC(=O)[C@@H](NC(=O)[C@H](Cc1ccccc1)NC(=O)[C@@H](NC(=O)CNC(=O)[C@H](CCC(N)=O)NC(=O)C(C)(C)NC(=O)[C@@H](N)Cc1c[nH]cn1)[C@@H](C)O)[C@@H](C)O)C(C)C)C(C)C)C(=O)N[C@@H](CCC(=O)O)C(=O)N[C@@H](C)C(=O)NCC(=O)NCC(=O)O` [Peptide 524] (H-H[Aib]QGTFTSDVSE[αMeF]LDSERAK([AEEA-AEEA-γGlu-C18 diacid])DFVRWLEAGG-OH), the EC50 in test [1] (setting [4]) is over 24.4 nM; in test [2] (setting [4]), 0.366 nM.
For the compound `CC(C)C[C@H](NC(=O)[C@H](Cc1c[nH]c2ccccc12)NC(=O)[C@H](CCC(N)=O)NC(=O)[C@@H](NC(=O)[C@H](Cc1ccccc1)NC(=O)[C@H](CC(=O)O)NC(=O)[C@H](CCCCNC(=O)COCCOCCNC(=O)COCCOCCNC(=O)CC[C@H](NC(=O)CCCCCCCCCCCCCCCCC(=O)O)C(=O)O)NC(=O)[C@H](C)NC(=O)[C@H](CCCNC(=N)N)NC(=O)[C@H](CCC(=O)O)NC(=O)[C@H](CO)NC(=O)[C@H](CC(=O)O)NC(=O)[C@H](CC(C)C)NC(=O)[C@](C)(Cc1ccccc1)NC(=O)[C@H](CCCCN)NC(=O)[C@H](CO)NC(=O)[C@@H](NC(=O)[C@H](CC(=O)O)NC(=O)[C@H](CO)NC(=O)[C@@H](NC(=O)[C@H](Cc1ccccc1)NC(=O)[C@@H](NC(=O)CNC(=O)[C@H](CCC(N)=O)NC(=O)C(C)(C)NC(=O)[C@@H](N)Cc1c[nH]cn1)[C@@H](C)O)[C@@H](C)O)C(C)C)C(C)C)C(=O)N[C@@H](CCC(=O)O)C(=O)N[C@@H](C)C(=O)NC(C)(C)C(=O)NCC(=O)O` [Peptide 525], the figures for the EC50 in test [1] (setting [4]) and in test [2] (setting [4]) were 2.45 nM and 0.177 nM, respectively. Further, the “% Relative Potency Ratio” value in test [2] (Table 7) turned out to be 27.4.
